Laboratory results reported in US10392394B2, “Antimicrobial compounds and methods” (Board of Supervisors of Louisiana State University and …, priority 2013, dated 2019).

Columns and labels:
[1] = system: Human gingival fibroblasts; assay: Biocompatibility (cytotoxicity) test, Calcein-AM cell survival; assay type: cell-based; details: 24 h exposure, FIG. 1
Method: Synthesized monomers (Formulas 4-6, 10, and 11) and methacryloyloxyundecyldi-methylbenzylammonium bromide (Formula 1) were tested for biocompatibility (cytotoxicity). Human gingival fibroblasts were obtained from extracted molars from patients with healthy gingival following informed consent as prescribed in an approved IRB protocol. Gingival fibroblasts were maintained in MEM containing 10% fetal calf serum (FCS) and 200 units/mL penicillin and 200 μg/mL streptomycin. Cells were grown in 48-well plates for 24 h prior to exposure to the monomers. The growth media containing 0.1% dimethylsulfoxide (DMSO) were supplemented with 10^−4 M, 10^−5 M, 10^−6 M and 10^−7 M concentrations of five newly synthesized exemplary monomers (Formulas 4-6, 10, and 11) and added to the cells for 24 h. MEM served as a control for cytotoxicity. Cell survival was visualized using a fluorescent esterase substrate (Calcein-AM) and a inverted fluorescent microscope. Cell survival was quantified using a fluorescent multi-well plate reader.

[2] = system: Streptococcus mutans, Lactobacillus casei, Staphylococcus aureus and Pseudomonas aeruginosa; assay: Antimicrobial activity, automated growth curve analysis; assay type: cell-based; details: 10^−4 M-10^−7 M in BMGS medium, triplicate, FIG. 2
Method: Evaluation of antimicrobial activities of Formula 1 and synthesized monomers (Formulas 4-6, 10, and 11) was also performed. Streptococcus mutans was grown in brain heart infusion (BHI, Difco Laboratories, Detroit, Mich.), Lactobacillus casei was grown in MRS medium (Difco), Staphylococcus aureus and Pseudomonas aeruginosa were grown in Trypticase Soy Broth (TSB; Difco). They all were grown under static conditions in an 37° C. aerobic chamber with (for S. mutans only) or without 5% CO2. For antimicrobial assay, these bacteria were cultivated using a modified semi-defined biofilm medium (BM) with glucose (18 mM) and sucrose (2 mM) (BMGS) as the supplemental carbohydrate sources. Antimicrobial efficacy was measured using an automated growth curve analysis system. Overnight cultures were transferred to fresh medium and allowed to grow to mid-exponential phase, when they were properly diluted in BMGS and allowed to grow in the automated growth curve analysis system with and without inclusion of Formula 1 and synthesized monomers (Formulas 4-6, 10, and 11). All antimicrobial monomers were dissolved in DMSO at 10^−2 M concentration and serial dilutions were made to achieve the desired concentrations (10^−4 M-10^−7 M). All experiments were run in triplicate.

[3] = concentrations of 10^−5 M and below

| Structure (SMILES) | cytotoxicity (cell survival) ([1]; 10^−4 M concentration) | cytotoxicity (cell survival) [1, 3] | antibacterial activity [2] |
| --- | --- | --- | --- |
| C=C(C)C(=O)OCC(COC(=O)C(=C)C)OC(=O)CCCCCCCCC[N+]12CCN(CC1)CC2.[Br-] [Formula 4, 2-(1,3-dimethacryloyloxy)propyl 10-(1-(1-azonia-4-azabicylco[2.2.2]octyl))decanoate bromide] | little cytotoxicity |  |  |
| C=C(C)C(=O)OCC(COC(=O)C(=C)C)OC(=O)CCCCCCCCCCCCCCC[N+]12CCN(CC1)CC2.[Br-] [Formula 5, 2-(1,3-dimethacryloyloxy)propyl 16-(1-(1-azonia-4-azabicylco[2.2.2]octyl))hexadecanoate bromide] | significant cell death | good biocompatibility | Highest levels of antibacterial activity |
| C=C(C)C(=O)OCC(COC(=O)C(=C)C)OC(=O)CCCCCCCCCCCCCCC[N+](C)(C)Cc1ccccc1 [Formula 6, 2-(1,3-dimethacryloyloxy)propyl 16-N,N-dimethylbenzylammoniumhexadecanoate bromide] | significant cell death | good biocompatibility | Highest levels of antibacterial activity |
| C=C(C)C(=O)OCCCCCCCCCCCCCCCC[N+]12CCN(CC1)CC2.[Br-] [Formula 11, 16-(1-azonia-4-azabicylco[2.2.2]octyl)hexadecylmethacrylate bromide] | little cytotoxicity |  |  |
